“Also recorded” adds a separate entry of the source.

The test system of test [1] is H295R cells. In words: Cholesterol crystallization and extracellular cholesterol associated with cells. In kind it is cell-based. Here is the method:
To quantify cholesterol crystallization, experiments were conducted that measured the total extracellular cholesterol that was associated with the cells. After culturing cells with the indicated compounds, the culture medium was removed. Medium lacking cholesterol was added to the cells, and the extracellular cholesterol that was released into the wash medium was collected after 30 seconds. To establish if the cholesterol that was released from the cells was exported by ABCA1, the wash step was performed in parallel using media with and without 50 μM glibenclamide, which inhibits ABCA1 activity. The total amount of cell-associated cholesterol that was released into the wash medium was measured using a fluorometric enzyme-linked assay (Cayman Chemical). Cholesterol esters were hydrolyzed using cholesterol esterase. Cholesterol was oxidized by cholesterol oxidase, producing hydrogen peroxide. The hydrogen peroxide was reacted with 10-acetyl-3,7-dihydroxyphenoxazine (ADHP) in the presence of horseradish peroxidase to produce resorufin. Resorufin fluorescence was measured using 555 nm exitation and 590 nm emission wavelengths in a SpectraMax M5 microplate reader (Molecular Devices).
The medium was removed and replaced with 50 μl serum-free medium supplemented with 5 μg/mL apo-AI (without or with 50 μM glyburide to detect ABCA1 transporter-dependent efflux) for either 30 sec or 1 h at 37 C in 5% CO2 atmosphere. After the indicated time, the supernatant, was transferred to a new 96-well plate and a fluorometric-base cholesterol detection assay cocktail was added.

For test [2], the system named is H295R cells. Kind of test: Cortisol secretion (indirect ELISA). In kind it is cell-based. The following applies: 40 μM of the compound together with ATR-101, 4 h. Here is the method: Cortisol secretion was measured by replacing the culture medium with fresh medium containing the indicated compounds. The medium was collected at the indicated times. The cortisol concentration in the medium was measured using indirect ELISA (Arbor Assays).
After 48 h, the medium was removed and replaced with 50 μl of fresh medium. After the indicated incubation time, aliquots of the supernatant ranging from 0.5 to 10 μl were diluted in 50 μl of medium were used to measure the amount of cortisol secreted. Cortisol detection and quantification were performed by indirect ELISA according to the manufacturer's protocol (Arbor Assays #K003).

Test [3] has as its system H295R cells. In words: Visualization of NBD-cholesterol esterification. In kind it is cell-based. The following applies: 40 μM exogenous cholesterol, 100 μM ATR-101. How it is done: The cells were seeded in 96-well ibiTreat μ-Plates and allowed to adhere for 48 h prior to the start of each experiment. Cholesterol was detected in fixed cells by incubating with 100 μg/ml filipin III at 37 C for 2 h. The bound filipin III was imaged by fluorescence microscopy using 377/11 nm excitation and 447/60 nm emission wavelengths. Images were captured using either a 4× or a 60× objective. Cholesterol esterification was visualized by culturing the cells with 1 μM NBD-cholesterol for 2 h following incubation with the indicated compounds. NBD-cholesterol esters were imaged by fluorescence microscopy using 485/20 nm excitation wavelengths. Images were captured using either a 20× or a 60× objective.
The cells were seeded in 96-well ibiTreat μ-Plates (Ibidi) in 100 μl at a density of 50,000 cells per well. […] 5 μl of NBD-cholesterol was added to each well to produce a final concentration of 1 μM. When NBD-cholesterol is esterified and localized to cytoplasmic lipid droplets, it produces bright fluorescent foci in the cell. The inhibition of ACAT activity prevents fluorescent focus formation by NBD-cholesterol (see, e.g., Lada, et al., 2004 J Lipid Res, 45, 378-86). After 1.5 h, 5 μl of Hoechst 33342 was added to each well to produce a final concentration of 3 μg/ml. After 30 min, the medium was replaced with fresh medium. NBD-cholesterol esterification was visualized by fluorescence microscopy using either 485/20 nm (NBD) or 387/11 nm (Hoechst) excitation wavelengths and images were captured using either a 60× oil objective or a 20× objective.

For test [4], the system named is H295R cells. Kind of test: Visualization of cholesterol levels by filipin III binding. In kind it is cell-based. The following applies: for cholesterol level / accumulation (filipin III binding), compound alone: H295R cells, serum-containing medium. How it is done: The cells were seeded in 96-well ibiTreat μ-Plates and allowed to adhere for 48 h prior to the start of each experiment. Cholesterol was detected in fixed cells by incubating with 100 μg/ml filipin III at 37 C for 2 h. […] Images were captured using either a 4× or a 60× objective. Cholesterol esterification was visualized by culturing the cells with 1 μM NBD-cholesterol for 2 h following incubation with the indicated compounds. […] Images were captured using either a 20× or a 60× objective.
The medium was removed and immediately replaced with 100 μl of 4% paraformaldehyde and the cells were fixed at room temperature for 20 min. The cells were washed twice with 200 μl PBS. […] The fixed cells were incubated with filipin III at 37 C in the dark for 2 h.

Test [5] relates to H295R cells. In words: Caspase 3/7 activity (Apo-ONE). Type of test: cell-based. As to conditions: for caspase 3/7 activity, compound alone: H295R cells, serum-containing medium. Here is the method:
The samples were incubated for 18 h at room temperature in the dark. The fluorescence was measured using a SpectraMax M5 microplate reader with a 0.5 s acquisition time.

For test [6], the system named is H295R cells. Kind of test: Cell morphology by phase contrast microscopy. Type of test: cell-based. As to conditions: 30 h. Here is the method: FIG. 4E: […] The cells were cultured with DMSO vehicle (upper images) or with 40 μM ATR-101 (lower images) alone (left images), or in combination with 1.5 mM MβCD (middle images), or in combination with 40 μM cholesterol (right images). Cell morphology was visualized by phase contrast microscopy using a 10× objective. The images are representative of 5 fields under each set of culture conditions. The scale bars denote 100 μm.

Test [7] deals with H295R cells. In words: Cellular ATP level (CellTiter-Glo).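 On all read-outs here: ATP quantified by luminescence after lysing the cells in CellTiter-Glo reagent, with compound exposure at 37 °C under 5% CO2.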 The following applies: for ATP level, compound alone: H295R cells, serum-containing medium. Background: Cellular ATP, detected with luciferase, serves as a proxy for viable cell number.
Experimental: The ATP levels of cells were measured by lysis in CellTiter-Glo reagent (Promega), and measurement of the luminescence.
After 48 h, 20-80 μl of medium was removed from each well and replaced with 20 μl of each compound diluted to 6× of the final concentration in the culture medium to produce a final volume of 120 μl. The cells were incubated at 37 C in 5% CO2 atmosphere for a time ranging from 15 min to 24 h. The medium was removed and immediately replaced with 50 μl of CellTiter-Glo luminescence cell viability assay reagent (Promega). The cells were lysed by agitation at room temperature for 20 min in the dark. The luminescence was measured using a SpectraMax M5 microplate reader (Molecular Devices) with a 0.5 s acquisition time. The luminescence (RLU) values for control cells ranged from 5000 to 20000 RLU in all experiments, and were scaled by a factor of 0.001 to plot all graphs.
[8] abbreviates: H295R cells cultured with the compound together with ATR-101, 4 h.
Where [9] appears, read: H295R cells cultured with the compound together with ATR-101, 24 h.

For the compound `CC(C)CCC[C@@H](C)[C@H]1CC[C@H]2[C@@H]3CC=C4C[C@@H](O)CC[C@]4(C)[C@H]3CC[C@]12C` [cholesterol], the “total extracellular cholesterol associated with cells” value in test [1] (4 h, 100 μM ATR-101 or 40 μM cholesterol) is reported as “increased the total extracellular cholesterol”. The “effect on cholesterol crystallization in cells cultured with ATR-101” value in test [1] (compound in combination with ATR-101) is given as “produced more extracellular crystals; also recorded: increased the amount of extracellular cholesterol crystals”. For the same compound, in test [2], the “effect on the inhibition of cortisol secretion by ATR-101” value is reported as “neither compound prevented the inhibition of cortisol secretion”. In addition, the “effect of exogenous cholesterol on NBD-cholesterol esterification and on its inhibition by ATR-101” value in test [3] is “no significant difference”. Besides, the “effect on cholesterol accumulation caused by ATR-101” value in test [4] (H295R cells cultured with the compound together with ATR-101, 4 h or 24 h) is given as “lower cholesterol levels than cells that were cultured with ATR-101 alone; also recorded: prevented intracellular cholesterol accumulation; also recorded: did not have a higher level of filipin III binding to the plasma membrane”. Also, the “cholesterol level / accumulation (filipin III binding), compound alone” value in test [4] (24 h) and in test [4] (up to 4 h) was “no detectable effect” each time. In addition, the “effect on caspase 3/7 activation by ATR-101” value in test [5] (setting [8]) is “did not affect caspase 3/7 activation”; in test [5] (setting [9]) it was “reduced caspase activation”. For the same compound, the “caspase 3/7 activity, compound alone” value in test [5] (4 h) and in test [5] (24 h) was “no detectable effect” throughout. Further, the “effect on the changes in cell morphology caused by ATR-101” value in test [6] (40 μM ATR-101 with 1.5 mM MβCD or 40 μM cholesterol) was “remained flat and adherent for at least 30 h; also recorded: prevented”. Further, in test [6] (phase contrast), the “cell morphology, compound alone” value is “no detectable effect”. Further, the results for the “effect on ATP depletion by ATR-101” value in test [7] (setting [8]) and in test [7] (setting [9]) were “partially restored the ATP level; also recorded: restored normal or nearly normal ATP levels; also recorded: reduced ATP depletion” and “partially restored the ATP level; also recorded: inhibits ATP depletion by ATR-101”, respectively. Moreover, the “ATP level, compound alone” value in test [7] (4 h) and in test [7] (24 h) was “no detectable effect” in each case.

For the origin of these results see patent US10512667B2, “Compositions and methods for treating conditions related to adrenocortical activity and/or excessive steroid production” (The Regents of the University of Michigan, priority 2017, dated 2019).
